The values that follow come from article PMC2700827 (Journal of the American Chemical Society, 2008).

Read-outs that look alike come from different tables or passages of the source.

For series [1] the following is noted: hydrogen bond acceptor; cited from earlier work.
The conditions of series [2]: phenol pKa given in Figure 5 legend, source not given.

The pKa is the negative logarithm of the acid dissociation constant. Turning to `O=[N+]([O-])c1cc[n+]([O-])cc1` [4-nitropyridine-N-oxide], in series [1], the pKa is −1.7.
Turning to `Oc1c(F)cc(F)cc1F` [2,4,6-F3-phenol], the pKa in series [2] is given as 7.2.
